Drawing on patent publication US9649308B2, “Benzamide-containing compounds and their use in the treatment of pain” (H. Lundbeck A/S, priority 2012, dated 2017), this text covers IC50 for seven compounds.

pIC50: −log10 of the molar value.

Sequence of human P2X7 receptor (Q99572 whole entry): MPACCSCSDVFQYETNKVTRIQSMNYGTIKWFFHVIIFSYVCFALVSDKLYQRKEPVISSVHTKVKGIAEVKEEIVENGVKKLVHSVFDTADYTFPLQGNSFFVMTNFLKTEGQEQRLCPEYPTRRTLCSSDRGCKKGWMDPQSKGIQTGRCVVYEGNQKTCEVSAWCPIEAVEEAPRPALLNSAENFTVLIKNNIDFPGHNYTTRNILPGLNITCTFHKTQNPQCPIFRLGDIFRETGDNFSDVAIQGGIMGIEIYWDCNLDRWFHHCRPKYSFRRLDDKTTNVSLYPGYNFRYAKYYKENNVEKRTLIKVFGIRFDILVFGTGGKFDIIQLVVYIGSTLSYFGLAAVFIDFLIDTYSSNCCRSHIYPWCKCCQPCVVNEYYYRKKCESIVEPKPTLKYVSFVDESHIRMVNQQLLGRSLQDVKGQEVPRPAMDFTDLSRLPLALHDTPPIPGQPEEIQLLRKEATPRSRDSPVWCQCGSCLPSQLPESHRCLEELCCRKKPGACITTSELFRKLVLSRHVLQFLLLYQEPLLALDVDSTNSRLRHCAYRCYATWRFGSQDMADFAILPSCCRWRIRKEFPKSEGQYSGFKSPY

This test has as its target human P2X7 receptor (Homo sapiens (Human), UniProt Q99572). Kind of test: P2X7 FLIPR antagonist assay (BzATP-stimulated, 293 HEK cells stably expressing P2X7 receptor). It is filed as cell-based. The note with it: Table 1, exemplified IC50 values; antagonist activity vs BzATP. As for the experimental part:
This example illustrates representative assays for use in evaluating the test compounds for antagonist activity. Compounds of the present invention were tested in vitro for their ability to act as antagonists to the P2X7 receptor.
Cells were plated to cell density of approximately 15,000 cells/well in 384-well assay plates (50 μl/well) with 1.5% low serum media (DMEM, 1.5% BCS, 1% L-glut (2 mM), 1% P/S).
Cells were plated to cell density of approximately 15,000 cells/well in 384-well assay plates (50 μl/well) with 1.5% low serum media (DMEM, 1.5% FBS, 1% L-glut (2 mM), 10 mM HEPES, 1% P/S). Cells were plated 24 hours prior to assay. Cells expressing human, rat or mouse P2X7 receptor were assayed in the following manner.
Fluo-4 NW dye mix (Molecular Probes, Inc., Eugene, Oreg., USA) was prepared in buffer (see manufacturer's instructions). Cell plates were removed from the 37° C. incubator, the media discarded and then 30 μL of dye was added to each well. Plates were placed in the 37° C., non-CO2 incubator for 30 minutes and then room temperature for 30 minutes.
B) Agonist only mixture was prepared with BzATP at a single concentration in buffer (concentration determined by dose response).
Compound mixtures (A) were added to assay plates containing cells and placed at room temperature for 30 minutes, then BzATP (B) was added. Fluorescence was read using the Tetra FLIPR® (Molecular Devices, Inc., Sunnyvale, Calif., USA) and IC50 values were calculated by standard methods to determine antagonist activity.
Usually pIC50 stands for −log10 of the IC50, conventionally taken in molar units. In turn, `Cc1ncc(C(CNC(=O)c2c(F)cccc2Cl)c2ccncc2)cn1` (stereo not shown) [2-chloro-6-fluoro-N-[2-(2-methylpyrimidin-5-yl)-2-(4-pyridyl)ethyl]benzamide] had a pIC50 of 6.19.

As for `Cc1ncc(C(CNC(=O)c2cccc(Cl)c2Cl)C2CCC(F)(F)CC2)cn1` (single isomer, unassigned; (+)) [(+)2,3-dichloro-N-[2-(4,4-difluorocyclohexyl)-2-(2-methylpyr] [(+)2,3-dichloro-N-[2-(4,4-difluorocyclohexyl)-2-(2-methylpyrimidin-5-yl)ethyl]benzamide], the pIC50 was 8.08.

With `O=C(NCC1(c2cnc(C(F)(F)F)nc2)CCOCC1)c1ccccc1Cl` [2-chloro-N-[[4-[2-(trifluoromethyl)pyrimidin-5-yl]tetrahydropyran-4-yl]methyl]benzamide], the pIC50 is 5.36.

For `Cc1ncc(C(CNC(=O)c2cccc(Cl)c2Cl)c2ccncc2)cn1` (stereo not shown) [2,3-dichloro-N-[2-(2-methylpyrimidin-5-yl)-2-(4-pyridyl)ethyl]benzamide], the pIC50 was 7.30.

`Cc1ncc(C(CNC(=O)c2cccc(Cl)c2Cl)C2CCC(F)(F)CC2)cn1` (single isomer, unassigned; (-)) [(−)2,3-dichloro-N-[2-(4,4-difluorocyclohexyl)-2-(2-methylpyr] [(−)2,3-dichloro-N-[2-(4,4-difluorocyclohexyl)-2-(2-methylpyrimidin-5-yl)ethyl]benzamide] gave a pIC50 of 7.80.

Consider `O=C(NCC(CC1CC1)c1ccc(C(F)F)nc1)c1cccc(Cl)c1Cl` (single isomer, unassigned; (-)) [(−)2,3-dichloro-N-[3-cyclopropyl-2-[6-(difluoromethyl)-3-pyr] [(−)2,3-dichloro-N-[3-cyclopropyl-2-[6-(difluoromethyl)-3-pyridyl]propyl]benzamide], for which the pIC50 was 8.72.

As for `Cc1ncc(C2(C(C)NC(=O)c3c(F)cccc3Cl)CCOCC2)cn1` (stereo not shown) [2-chloro-6-fluoro-N-[1-[4-(2-methylpyrimidin-5-yl)tetrahydropyran-4-yl]ethyl]benzamide], the negative logarithm of the IC50 (pIC50) is 7.26.
